Laboratory results from US11219625B2, “Inhibitors of N-linked glycosylation and methods using same” (YALE UNIVERSITY, priority 2015, dated 2022).

What was measured:
EGFR = EGFR western blot gel mobility, H3255 cells; type: cell-based; conditions: lung adenocarcinoma cells, 10 μM NGI-1, 24 h
Description: FIGS. 3A-3F illustrate the finding that NGI-1 disrupts EGFR glycosylation and cell surface expression. FIG. 3A illustrates EGFR western blots from H3255 treated with or without 10 μM NGI-1 for 24 h. Molecular weight size shifts are compared to PNGase digestion and tunicamycin treatment alone. FIG. 3B illustrates EGFR localization in H3255 cells after 24 h 10 μM NGI-1 treatment analyzed by western blot. Plasma membrane proteins present on the surface of H3255 cells were biotinylated using a non-permeable form of biotin, sulfo-NHS—SS-biotin, and precipitated by streptavidin agarose beads. Biotin-labeled plasma membrane proteins and the fraction of non-biotinylated proteins were subjected to SDS-PAGE and analyzed by western blot against EGFR. FIG. 3C illustrates EGFR localization in H3255 cells after 24 h 10 μM NGI-1 treatment analyzed by confocal microscopy. H3255 cells were subjected to immunofluorescence for EGFR protein (red) counterstained with (CRT; green) and colocalization was determined by confocal microscopy. Nuclei were counterstained with ToPro3 (cyan). […] Bar, 10 μm. FIG. 3D illustrates quantification of colocalization using Image J Colormap Software. […] ITB1 localization after 10 μM NGI-1 for 48 h analyzed by (FIG. 3E) surface biotinylation (FIG. 3F) confocal microscopy (green). […]

HCC827 cells = assay: MTT proliferation assay, HCC827; type: cell-based; conditions: HCC827, 10 μM NGI-1, 5 d, p<0.05
Description: FIGS. 7A-7D illustrate EGFR kinase domain mutant cell lines growth inhibition and cell cycle arrest response to NGI-1. FIG. 7A illustrates MTT assays to determine the effects of NGI-1 on growth of H3255 cells. FIG. 7B illustrates MIT assays to determine the effects of NGI-1 on growth of HCC827 cells. EGFR kinase domain mutant cell lines H3255 and HCC827 cells were untreated or treated with 10 μM NGI-1 for 5 d. […] FIG. 7C illustrates cell cycle distribution of H3255 after 24 h NGI-1 treatment for 24 h determined by flow cytometry. FIG. 7D illustrates cell cycle distribution of HCC827 after 24 h NGI-1 treatment for 24 h determined by flow cytometry.
Growth rates were determined by CellTiter 96 NonRadioactive Cell Proliferation Assay (Promega; Madison, Wis. USA) according to the manufacturer's directions. Briefly, NSCLC cells (2×10^3) untreated or treated with […] NGI-1 or 1 μM Tn, were seeded in triplicates in 96-wells plates and grown in culture medium containing […]. Cell numbers were estimated after 0, 3, and 5 days by adding MTT [(3-(4,5-Dimethylthiazol-2-yl)-2,5-diphenyltetrazolium bromide] reagent to the wells 4 hours before taking the spectrophotometric reading (absorbance at 570 nm).

## Cc1cnc(NC(=O)c2cc(S(=O)(=O)N(C)C)ccc2N2CCCC2)s1 [NGI-1, 5-(N,N-Dimethylsulfamoyl)-N-(5-methylthiazol-2-yl)-2-(pyrrolidin-1-yl)benzamide]
EGFR
  EGFR N-linked glycosylation (molecular weight on SDS-PAGE): blocked EGFR N-linked glycosylation
HCC827 cells
  reduction of proliferation, MTT: > 45%
